The target in one assay is T1, human TRPM8 receptor (Homo sapiens, UniProt Q7Z2W7).
T1 construct: expressed in transfected cells; host or cells: HEK293, stably transfected, tetracycline-inducible expression
In words: Assay on TRPM8 modulators: Ca2+-sensitive dye (Fluo-4) fluorescence in HEK293-TRPM8 test cells. It counts as cell-based. More on the design: relative TRPM8 activation: concentration or dose not given beside the values. The note with it: for EC50: HEK293-TRPM8 cells; for relative TRPM8 activation: HEK293 cells recombinantly expressing human TRPM8. The method, boiled down: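 HEK293 cells stably carrying tetracycline-inducible human TRPM8 (1 µg/ml tetracycline), loaded next day with Fluo-4 (30 min 37 °C, 30 min RT). Compounds tested in triplicate at 0.1–200 µM (≤2% DMSO) and fluorescence read at 485/520 nm. EC50 from 4- or 5-parameter logistic fits of 6–10 concentrations.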

The nature of assay [1]: Sensory tasting of cooling intensity by trained panelists, WS-3 as reference. The assay is classed as in vivo, human. The note with it: 5 ppm in 5% sugar solution, rated after one minute, scale 1 (very weak) to 9 (very strong); for cooling intensity (sensory evaluation, score): tasted 40 seconds, n=10 to 11; for Sensory evaluation: cooling intensity. On the procedure: In order to quantify the cooling effect, comparative tests are carried out using menthane-3-carboxylic acid-N-ethylamide as a reference. For these comparative tests, the skilled person replaces the compound or compounds to be used according to the invention with menthane-3-carboxylic acid-N-ethylamide (also referred to as WS-3). Then the intensities of the cooling effects of the respective compounds or active ingredients are sensory evaluated by trained panelists (n=10 to 11) as described below and compared with each other.
The cooling intensity was tested as follows: Test solutions with 5 ppm of the compounds according to the invention were each tasted in a 5% sugar solution as well as a corresponding solution with 30 ppm of the reference substance WS-3. […] The panelists tasted the corresponding test solutions for exactly 40 seconds, rinsing the entire mouth with the corresponding test solution and then spitting out the sample or reference solution. Following the tasting, the test subjects rated the respective cooling intensity after one minute according to a scale of 1 (very weak) to 9 (very strong).

Setting [2] is: TRPM8 activation, 6 to 10 concentrations, logistic curve fitting, read-out: EC50 value.

Where two headings read alike, the source gives them in different places. Bounds are passed on as bounds.

T1 sequence (Q7Z2W7 whole entry): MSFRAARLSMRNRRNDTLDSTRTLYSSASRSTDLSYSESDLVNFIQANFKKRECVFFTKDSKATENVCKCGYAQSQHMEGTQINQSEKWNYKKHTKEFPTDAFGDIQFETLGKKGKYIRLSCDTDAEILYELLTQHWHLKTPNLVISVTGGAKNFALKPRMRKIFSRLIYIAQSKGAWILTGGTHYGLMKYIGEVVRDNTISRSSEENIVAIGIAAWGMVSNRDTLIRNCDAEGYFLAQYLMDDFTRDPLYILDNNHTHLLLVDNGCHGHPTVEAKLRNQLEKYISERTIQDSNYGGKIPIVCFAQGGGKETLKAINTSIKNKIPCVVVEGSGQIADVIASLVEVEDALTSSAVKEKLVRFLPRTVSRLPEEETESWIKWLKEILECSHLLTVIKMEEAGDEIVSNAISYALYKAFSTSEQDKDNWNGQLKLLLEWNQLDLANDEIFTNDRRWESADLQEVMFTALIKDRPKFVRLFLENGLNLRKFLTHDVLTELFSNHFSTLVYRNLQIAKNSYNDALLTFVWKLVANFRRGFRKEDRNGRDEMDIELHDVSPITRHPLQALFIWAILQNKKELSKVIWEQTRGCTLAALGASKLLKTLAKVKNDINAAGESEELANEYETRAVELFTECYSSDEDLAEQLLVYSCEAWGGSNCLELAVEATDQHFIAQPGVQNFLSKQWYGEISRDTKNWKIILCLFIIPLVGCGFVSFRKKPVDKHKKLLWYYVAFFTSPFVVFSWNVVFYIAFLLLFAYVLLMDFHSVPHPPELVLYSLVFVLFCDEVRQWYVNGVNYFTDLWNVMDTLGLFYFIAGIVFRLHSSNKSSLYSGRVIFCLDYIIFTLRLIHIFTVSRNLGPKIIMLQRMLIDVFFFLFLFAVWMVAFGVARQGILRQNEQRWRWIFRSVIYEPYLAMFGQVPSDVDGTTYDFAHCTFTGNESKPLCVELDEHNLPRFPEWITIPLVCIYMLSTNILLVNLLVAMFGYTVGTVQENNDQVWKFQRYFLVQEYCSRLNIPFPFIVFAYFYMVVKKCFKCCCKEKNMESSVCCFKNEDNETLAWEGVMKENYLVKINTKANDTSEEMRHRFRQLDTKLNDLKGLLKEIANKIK

What is called EC50 is the concentration that produces a half-maximal response. As for `CNC(=O)C(C)Sc1nnc(-c2ccccc2)c(-c2ccccc2)n1` (stereo not drawn) [Compound B-11, 2-[(5,6-diphenyl-1,2,4-triazin-3-yl)sulfanyl]-N-methyl-propanamide], the EC50 on human TRPM8 receptor (Table 5, read-out: TRPM8 EC50) turned out to be 1.43 µM; at human TRPM8 receptor (Table 7, read-out: TRPM8 EC50), 1.43 µM. The “cooling intensity (sensory evaluation, score)” value (from here on “cooling intensity”) in assay [1] is on record as 5.3. Also, the Sensory evaluation in assay [1] (Table 5) and in assay [1] (Table 9) was 5.3 throughout.
In the case of `CC(Sc1nnc(-c2ccccc2)c(-c2ccccc2)n1)C(=O)NC1CC1` (stereo not drawn) [Compound B-01, N-Cyclopropyl-2-[(5,6-diphenyl-1,2,4-triazin-3-yl)sulfanyl] propanamide], the EC50 at human TRPM8 receptor (setting [2]) is no more than 1 µM; at human TRPM8 receptor (Table 5, read-out: TRPM8 EC50), 0.05 µM; on human TRPM8 receptor (Table 7, read-out: TRPM8 EC50) it was 0.05 µM. Besides, the “cooling intensity” value in assay [1] amounted to 4.2. In addition, the Sensory evaluation in assay [1] (Table 5) and in assay [1] (Table 9) was 4.2 each time.
As for `CCNC(=O)CCc1nc(-c2ccccc2)c(-c2ccccc2)o1` [Compound A-07, 3-(4,5-diphenyloxazol-2-yl)-N-ethyl-propanamide], the EC50 on human TRPM8 receptor (setting [2]) is no more than 1 µM; at human TRPM8 receptor (Table 6, read-out: TRPM8 EC50), 0.15 µM; on human TRPM8 receptor (Table 8, read-out: TRPM8 EC50) it was 0.15 µM. In addition, the Sensory evaluation in assay [1] (Table 6) and in assay [1] (Table 10) was 2.67 throughout.
Consider `CCC(Sc1nc(-c2ccccc2)c(-c2ccccc2)o1)C(=O)NC` (stereo not drawn) [Compound A-09, 2-(4,5-diphenyloxazol-2-yl)sulfanyl-N-methyl-butanamide], for which the EC50 amounted to 1.54 µM on human TRPM8 receptor (Table 6, read-out: TRPM8 EC50) and 1.54 µM at human TRPM8 receptor (Table 8, read-out: TRPM8 EC50). For the same molecule, the “cooling intensity” value in assay [1] was determined as 4.66. The Sensory evaluation in assay [1] (Table 6) and in assay [1] (Table 10) was 4.66 throughout.
Consider `CC(Sc1nc(-c2ccccc2)c(-c2ccccc2)o1)C(=O)NC1CC1` (stereo not drawn) [Compound A-10, N-cyclopropyl-2-(4,5-diphenyloxazol-2-yl) sulfanyl-propanamide], for which the EC50 amounted to 2.13 µM at human TRPM8 receptor (Table 6, read-out: TRPM8 EC50) and 2.13 µM at human TRPM8 receptor (Table 8, read-out: TRPM8 EC50). Also, the “cooling intensity” value in assay [1] is 5.38. For the same molecule, the Sensory evaluation in assay [1] (Table 6) and in assay [1] (Table 10) was 5.38 in each case.
For the molecule `O=C(CCc1nc(-c2ccccc2)c(-c2ccccc2)o1)NC1CC1` [Compound A-22, N-cyclopropyl-3-(4,5-diphenyloxazol-2-yl)propanamide], on human TRPM8 receptor, the “relative TRPM8 activation” value was determined as 69%. In assay [1] (Table 6), this molecule registered a Sensory evaluation of 0.8.
With `CNC(=O)C(C)Sc1nc(C)c(-c2ccccc2)o1` (stereo not drawn) [Compound A-05, N-methyl-2-(4-methyl-5-phenyl-oxazol-2-yl)sulfanyl-propanamide], the EC50 on human TRPM8 receptor (Table 6, read-out: TRPM8 EC50) was determined as 2.31 µM; at human TRPM8 receptor (Table 8, read-out: TRPM8 EC50) it was 2.31 µM. Besides, the Sensory evaluation in assay [1] (Table 6) and in assay [1] (Table 10) was 1.1 in each case.
Consider `CC(Sc1nc(-c2ccccc2)c(-c2ccccc2)o1)C(N)=O` (stereo not drawn) [Compound A-20, 2-(4,5-diphenyloxazol-2-yl)sulfanyl-propanamide], for which the “relative TRPM8 activation” value at human TRPM8 receptor came to 73%. This molecule yielded a Sensory evaluation in assay [1] (Table 6) of 0.81.
`CNC(=O)C(C)Sc1cnc(-c2ccccc2)c(-c2ccccc2)n1` (stereo not drawn) [Compound B-02, 2-(5,6-diphenylpyrazin-2-yl)sulfanyl-N-methyl-propanamide]: the EC50 at human TRPM8 receptor (setting [2]) is no more than 1 µM; at human TRPM8 receptor (Table 5, read-out: TRPM8 EC50), 0.08 µM; on human TRPM8 receptor (Table 7, read-out: TRPM8 EC50), 0.08 µM. Moreover, the “cooling intensity” value in assay [1] came to 4.1. The Sensory evaluation in assay [1] (Table 5) and in assay [1] (Table 9) was 4.1 throughout.
As for `CNC(=O)C(C)Sc1nnc2c3ccccc3c3ccccc3c2n1` (stereo not drawn) [Compound B-07, N-methyl-2-phenanthro[9,10-e][1,2,4]triazine-3-ylsulfanyl-propanamide], the concentration giving a half-maximal response (EC50) on human TRPM8 receptor (EC50 value, TRPM8 activation, 6 to 10 concentrations, logistic curve fitting) was no more than 1 µM; on human TRPM8 receptor (TRPM8 EC50, Table 5), 0.92 µM; on human TRPM8 receptor (TRPM8 EC50, Table 7), 0.92 µM. The Sensory evaluation in assay [1] (Table 5) and in assay [1] (Table 9) was 0.75 each time.

The record behind these values is patent US20250163006A1, “New Coolants, and Preparations Containing Same” (Symrise AG, priority 2022, published 2025).
